Assay results: US20150313209A1, “SOLUTION FOR PRESERVING VASCULAR CONDUITS” (SOMAHLUTION, LLC, priority 2012, published 2015)

Assay: Stability of ascorbic acid and reduced glutathione in solution over time (chromatography with electrospray MS / photo diode array detection)
Type: physicochemical
Conditions: stored at room temperature
Method: A second solution and the final formulation from Example 1 were analyzed to evaluate the stability of ascorbic acid and reduced glutathione over a period of time at room temperature. The final formulation was formed by mixing together the first and second solutions and its pH was adjusted to about 7.4. […] The stability of ascorbic acid and the stability of reduced glutathione were determined over a period of time in both solutions. Both the final formulation and the second solution were stored at room temperature. The chromatography method developed and employed for this study separated the ascorbic acid and glutathione reproducibly and without any mutual interference between the components or their decomposition products. Two components were detected using electrospray spectrometry in +ve selected ion monitoring mode. In addition L-Ascorbic acid, and L-glutathione were also detected by photo diode array absorbing in the 190-400 nm range. The integrated chromatographic intensities of each of the component peaks was a measure of its molar quantity in solution analyzed. The pH, conductivity, and osmolalities were also measured for each sample. The stability indicating properties of GALA were evaluated at: 40° C.±2° C./75% RH±5% Relative Humidity (RH). A qualified stability chamber with uniform and constant temperature and relative humidity was used for storing the product containers. The chamber's thermometer and digital readout were recorded daily. Samples received for the proposed stability study were logged and tracked in a Sample Receipt and Storage Log and maintained at 2-8° C. until the commencement of the study. A minimum of twenty one containers of the device from each representative batch of the first and second solutions were placed in the stability chamber maintained at 40° C.±2° C./75% RH±5% RH. This date was recorded as the zero time point. Three containers of each of the first and second solutions were pulled at 0, 5, 9, 15, 30, 50, and 80-day intervals from the stability chamber for testing.

[1] = in the final formulation (first and second solutions mixed) having a pH of about 7.4
[2] = in the second solution having a pH of about 3.0

Row | rate of decay [1] | rate of decay [2] | SMILES
1 | about 15 mg per day | about 3 mg per day | O=C1O[C@H]([C@@H](O)CO)C(O)=C1O [ascorbic acid, L-ascorbic acid]
2 | about 6 mg per day | about 3 mg per day | N[C@@H](CCC(=O)N[C@@H](CS)C(=O)NCC(=O)O)C(=O)O [reduced glutathione, L-glutathione (reduced)]
